In patent publication US20090181963A1, “3H-[1,2,3]TRIAZOLO[4,5-D]PYRIMIDINE COMPOUNDS, THEIR USE AS mTOR KINASE AND PI3 KINASE INHIBITORS, AND THEIR [sequence]” (Wyeth, priority 2008, published 2009):
Where a name gives a salt, the structure may show the parent alone. Read-outs that look alike come from different tables or passages of the source.

Tests used:
[1] = molecular target: PI3 Kinase γ (Homo sapiens, UniProt P48736); assay: Fluorescence polarization assay for PI3K (PI3 Kinase γ); type: biochemical; conditions: diC8-PI(4,5)P2 substrate, 25 μM ATP, one hour at 25° C.
[2] = molecular target: PI3 Kinase α (Homo sapiens, UniProt P42336); assay: Fluorescence polarization assay for PI3K (PI3 Kinase α); type: biochemical; conditions: diC8-PI(4,5)P2 substrate, 25 μM ATP, one hour at 25° C.
[3] = tested on: human tumor xenograft models; conditions: cited from earlier work
[4] = tested on: PI3K; conditions: reported, Raynaud et al 2007; read-out: IC50 PI3K (second named); cited from earlier work
[5] = molecular target: mTOR enzymes (Homo sapiens, UniProt P42345); conditions: read-out: IC50 mTOR enzymes; reported in the literature; cited from earlier work

Sequence of PI3 Kinase γ (P48736 whole entry): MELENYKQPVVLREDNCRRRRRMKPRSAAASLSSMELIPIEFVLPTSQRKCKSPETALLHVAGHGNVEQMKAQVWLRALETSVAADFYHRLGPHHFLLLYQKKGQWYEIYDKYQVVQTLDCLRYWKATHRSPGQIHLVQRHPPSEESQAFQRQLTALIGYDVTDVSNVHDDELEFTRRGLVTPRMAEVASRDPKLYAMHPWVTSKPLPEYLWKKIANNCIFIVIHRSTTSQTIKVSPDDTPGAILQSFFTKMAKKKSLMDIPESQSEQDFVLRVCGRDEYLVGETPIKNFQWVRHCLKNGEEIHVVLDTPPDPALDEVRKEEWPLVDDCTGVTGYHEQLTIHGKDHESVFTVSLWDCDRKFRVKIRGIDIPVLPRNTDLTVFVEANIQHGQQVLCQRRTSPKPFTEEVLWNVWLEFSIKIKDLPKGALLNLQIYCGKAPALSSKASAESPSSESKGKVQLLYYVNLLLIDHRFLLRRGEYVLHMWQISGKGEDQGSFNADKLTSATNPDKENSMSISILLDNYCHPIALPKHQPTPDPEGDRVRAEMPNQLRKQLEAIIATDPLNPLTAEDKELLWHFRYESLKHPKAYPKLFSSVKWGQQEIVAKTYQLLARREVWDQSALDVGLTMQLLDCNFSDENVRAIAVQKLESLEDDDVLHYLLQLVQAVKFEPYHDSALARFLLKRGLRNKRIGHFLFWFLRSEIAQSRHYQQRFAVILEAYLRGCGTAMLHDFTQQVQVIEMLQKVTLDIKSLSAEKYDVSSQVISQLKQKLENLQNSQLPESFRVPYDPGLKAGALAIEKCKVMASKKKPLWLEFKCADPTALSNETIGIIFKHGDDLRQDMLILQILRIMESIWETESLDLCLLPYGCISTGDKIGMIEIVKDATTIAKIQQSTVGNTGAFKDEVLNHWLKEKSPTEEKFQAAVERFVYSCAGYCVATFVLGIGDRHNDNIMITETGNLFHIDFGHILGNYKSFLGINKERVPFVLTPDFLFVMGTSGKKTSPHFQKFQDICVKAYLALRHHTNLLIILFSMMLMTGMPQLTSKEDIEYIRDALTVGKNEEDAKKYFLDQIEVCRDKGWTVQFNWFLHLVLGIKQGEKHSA
Sequence of PI3 Kinase α (P42336 whole entry): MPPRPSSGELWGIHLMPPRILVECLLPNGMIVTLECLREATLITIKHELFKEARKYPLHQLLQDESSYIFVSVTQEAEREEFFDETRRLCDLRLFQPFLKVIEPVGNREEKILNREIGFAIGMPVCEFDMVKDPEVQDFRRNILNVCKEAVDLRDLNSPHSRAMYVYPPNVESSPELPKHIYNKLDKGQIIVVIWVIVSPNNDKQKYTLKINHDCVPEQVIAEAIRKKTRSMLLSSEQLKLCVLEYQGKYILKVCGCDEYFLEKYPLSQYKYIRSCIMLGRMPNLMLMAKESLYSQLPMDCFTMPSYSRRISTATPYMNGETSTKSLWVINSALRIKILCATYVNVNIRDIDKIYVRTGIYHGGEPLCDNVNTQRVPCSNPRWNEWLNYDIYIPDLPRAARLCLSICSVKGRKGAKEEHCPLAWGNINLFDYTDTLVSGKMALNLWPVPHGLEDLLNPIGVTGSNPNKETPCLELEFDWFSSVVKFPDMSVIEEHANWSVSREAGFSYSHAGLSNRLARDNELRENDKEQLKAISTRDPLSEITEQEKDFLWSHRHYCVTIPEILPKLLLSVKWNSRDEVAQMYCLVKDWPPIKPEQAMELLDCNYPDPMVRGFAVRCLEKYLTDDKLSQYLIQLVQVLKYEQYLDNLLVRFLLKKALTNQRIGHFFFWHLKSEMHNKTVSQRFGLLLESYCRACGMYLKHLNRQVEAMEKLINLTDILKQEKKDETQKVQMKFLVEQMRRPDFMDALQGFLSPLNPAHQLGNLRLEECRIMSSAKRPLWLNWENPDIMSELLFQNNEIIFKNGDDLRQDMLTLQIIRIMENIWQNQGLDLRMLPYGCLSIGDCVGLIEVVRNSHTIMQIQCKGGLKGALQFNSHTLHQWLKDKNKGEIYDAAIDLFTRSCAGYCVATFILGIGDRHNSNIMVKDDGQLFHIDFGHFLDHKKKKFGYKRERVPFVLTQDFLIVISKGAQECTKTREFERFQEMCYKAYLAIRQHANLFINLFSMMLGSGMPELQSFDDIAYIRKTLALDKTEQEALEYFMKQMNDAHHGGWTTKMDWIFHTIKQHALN
Sequence of PI3 Kinase α (P27986 whole entry partner): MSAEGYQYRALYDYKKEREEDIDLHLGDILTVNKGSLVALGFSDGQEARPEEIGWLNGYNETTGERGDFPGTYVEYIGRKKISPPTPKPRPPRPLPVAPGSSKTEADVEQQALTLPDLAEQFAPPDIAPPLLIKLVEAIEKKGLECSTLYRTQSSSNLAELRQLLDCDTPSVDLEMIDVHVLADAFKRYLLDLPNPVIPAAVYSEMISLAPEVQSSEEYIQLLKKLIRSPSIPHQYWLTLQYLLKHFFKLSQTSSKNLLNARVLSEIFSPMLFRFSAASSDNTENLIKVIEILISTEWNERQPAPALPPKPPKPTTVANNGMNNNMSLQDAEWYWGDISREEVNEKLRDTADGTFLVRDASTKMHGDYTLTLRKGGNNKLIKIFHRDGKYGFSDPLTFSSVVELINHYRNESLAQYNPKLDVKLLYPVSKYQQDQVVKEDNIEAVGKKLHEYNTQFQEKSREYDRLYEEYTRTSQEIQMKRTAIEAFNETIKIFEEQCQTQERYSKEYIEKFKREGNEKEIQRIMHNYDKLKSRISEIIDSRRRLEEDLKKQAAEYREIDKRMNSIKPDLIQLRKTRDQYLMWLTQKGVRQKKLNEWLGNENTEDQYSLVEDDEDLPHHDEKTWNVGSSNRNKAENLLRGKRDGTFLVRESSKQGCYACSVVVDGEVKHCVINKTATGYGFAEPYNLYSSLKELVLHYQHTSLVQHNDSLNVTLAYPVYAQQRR

SMILES	IC50 [1]	IC50 [2]	other results
O=C(Nc1ccncc1)Nc1ccc(-c2nc(N3CCOCC3)c3nnn(C4CCOCC4)c3n2)cc1 (as salt: HCl) [Example 198, 1-{4-[7-morpholin-4-yl-3-(tetrahydro-2H-pyran-4-yl)-3H-[1,2,3]triazolo[4,5-d]pyrimidin-5-yl]phenyl}-3-pyridin-4-ylurea]	–	–	melting point: 332 °C
O=C(NCCc1ccccc1)c1ccc(Cn2nnc3c(N4CCOCC4)nc(-c4cccc(O)c4)nc32)cc1 [Example 223, 4-{[5-(3-hydroxyphenyl)-7-morpholin-4-yl-3H-[1,2,3]triazolo[4,5-d]pyrimidin-3-yl]methyl}-N-(2-phenylethyl)benzamide]	2510 nM	175 nM	–
O=C(c1ccc(Cn2nnc3c(N4CCOCC4)nc(-c4cccc(O)c4)nc32)cc1)N1CCN(c2ccccc2)CC1 [Example 229, 3-(7-morpholin-4-yl-3-{4-[(4-phenylpiperazin-1-yl)carbonyl]benzyl}-3H-[1,2,3]triazolo[4,5-d]pyrimidin-5-yl)phenol]	10200 nM	286 nM	–
O=C(NCCc1cnc[nH]1)c1ccc(Cn2nnc3c(N4CCOCC4)nc(-c4cccc(O)c4)nc32)cc1 [Example 231, 4-{[5-(3-hydroxyphenyl)-7-morpholin-4-yl-3H-[1,2,3]triazolo[4,5-d]pyrimidin-3-yl]methyl}-N-[2-(1H-imidazol-5-yl)ethyl]benzamide]	2300 nM	60 nM	–
CC(C)(C)OC(=O)Cn1nnc2c(N3CCOCC3)nc(-c3cccc(O)c3)nc21 [Example 233, tert-butyl [5-(3-hydroxyphenyl)-7-morpholin-4-yl-3H-[1,2,3]triazolo[4,5-d]pyrimidin-3-yl]acetate]	2720 nM	501 nM	–
NC(=O)Cn1nnc2c(N3CCOCC3)nc(-c3cccc(CO)c3)nc21 [Example 237, 2-{5-[3-(hydroxymethyl)phenyl]-7-morpholin-4-yl-3H-[1,2,3]triazolo[4,5-d]pyrimidin-3-yl}acetamide]	2590 nM	460 nM	–
CN(C)CCNC(=O)Cn1nnc2c(N3CCOCC3)nc(-c3cccc(CO)c3)nc21 [Example 239, N-[2-(dimethylamino)ethyl]-2-{5-[3-(hydroxymethyl)phenyl]-7-morpholin-4-yl-3H-[1,2,3]triazolo[4,5-d]pyrimidin-3-yl}acetamide]	5060 nM	1130 nM	–
COC(=O)c1ccc(Cn2nnc3c(N4CCOCC4)nc(-c4cccc(O)c4)nc32)cc1 [Example 241, methyl 4-{[5-(3-hydroxyphenyl)-7-morpholin-4-yl-3H-[1,2,3]triazolo[4,5-d]pyrimidin-3-yl]methyl}benzoate]	4910 nM	630 nM	–
COC(=O)c1ccc(Cn2nnc3c(N4CCOCC4)nc(-c4cccc(CO)c4)nc32)cc1 [Example 243, methyl 4-({5-[3-(hydroxymethyl)phenyl]-7-morpholin-4-yl-3H-[1,2,3]triazolo[4,5-d]pyrimidin-3-yl}methyl)benzoate]	9590 nM	765 nM	–
Cn1c(=O)n(-c2ccc(C(C)(C)C#N)cc2)c2c3cc(-c4cnc5ccccc5c4)ccc3ncc21 [NVP-BEZ-235, 2-methyl-2-(4-(3-methyl-2-oxo-8-(quinolin-3-yl)-2,3-dihydro-1H-imidazo[4,5-c]quinolin-1-yl)phenyl)propanenitrile]	–	–	activity in human tumor xenograft models ([3]; prostrate (PC-3) and glioblastoma (U-87)): demonstrated activity
CO[C@H]1C[C@@H]2CC[C@@H](C)[C@@](O)(O2)C(=O)C(=O)N2CCCC[C@H]2C(=O)O[C@H]([C@H](C)C[C@@H]2CC[C@@H](OC(=O)C(C)(CO)CO)[C@H](OC)C2)CC(=O)[C@H](C)/C=C(\C)[C@@H](O)[C@@H](OC)C(=O)[C@H](C)C[C@H](C)/C=C/C=C/C=C/1C [Torisel]	–	–	activity in xenograft mouse model ([3]; NOS/SCID xenograft mouse model of acute lymphoblastic leukemia): active
FC(F)c1nc2ccccc2n1-c1nc(N2CCOCC2)nc(N2CCOCC2)n1 [ZSTK474, 2-(2-difluoromethylbenzoimidazol-1-yl)-4,6-dimorpholino-1,3,5-triazine]	–	–	tumor growth in mouse human xenograft cancer models ([3]; chronic oral administration, 400 mg/kg, A549, PC-3, WiDr): completely inhibited growth; IC50 [5]: > 10000 nM

More lines, main results first:

IC50 [1]	IC50 [2]	SMILES	other results
25.5 nM	4.5 nM	Cn1nnc2c(N3CCOCC3)nc(-c3ccc(NC(=O)Nc4ccsc4)cc3)nc21 [Example 201, 1-[4-(3-methyl-7-morpholin-4-yl-3H-[1,2,3]triazolo[4,5-d]pyrimidin-5-yl)phenyl]-3-(3-thienyl)urea]	melting point: 272 °C
1910 nM	90 nM	C[C@H](NC(=O)c1ccc(Cn2nnc3c(N4CCOCC4)nc(-c4cccc(O)c4)nc32)cc1)c1ccccc1 [Example 224, 4-{[5-(3-hydroxyphenyl)-7-morpholin-4-yl-3H-[1,2,3]triazolo[4,5-d]pyrimidin-3-yl]methyl}-N-[(1S)-1-phenylethyl]benzamide]	–
135 nM	43 nM	O=C(NCCc1c[nH]c2ccccc12)c1ccc(Cn2nnc3c(N4CCOCC4)nc(-c4cccc(O)c4)nc32)cc1 [Example 225, 4-{[5-(3-hydroxyphenyl)-7-morpholin-4-yl-3H-[1,2,3]triazolo[4,5-d]pyrimidin-3-yl]methyl}-N-[2-(1H-indol-3-yl)ethyl]benzamide]	–
958 nM	126 nM	O=C(NCC(O)c1ccccc1)c1ccc(Cn2nnc3c(N4CCOCC4)nc(-c4cccc(O)c4)nc32)cc1 (centres unmarked) [Example 226, N-(2-hydroxy-2-phenylethyl)-4-{[5-(3-hydroxyphenyl)-7-morpholin-4-yl-3H-[1,2,3]triazolo[4,5-d]pyrimidin-3-yl]methyl}benzamide]	–
950 nM	1130 nM	O=C(c1ccc(Cn2nnc3c(N4CCOCC4)nc(-c4cccc(O)c4)nc32)cc1)N1CCCCC1 [Example 227, 3-{7-morpholin-4-yl-3-[4-(piperidin-1-ylcarbonyl)benzyl]-3H-[1,2,3]triazolo[4,5-d]pyrimidin-5-yl}phenol]	–
544 nM	911 nM	O=C(c1ccc(Cn2nnc3c(N4CCOCC4)nc(-c4cccc(O)c4)nc32)cc1)N1CCCC1 [Example 228, 3-{7-morpholin-4-yl-3-[4-(pyrrolidin-1-ylcarbonyl)benzyl]-3H-[1,2,3]triazolo[4,5-d]pyrimidin-5-yl}phenol]	–
938 nM	118 nM	O=C(NCc1ccco1)c1ccc(Cn2nnc3c(N4CCOCC4)nc(-c4cccc(O)c4)nc32)cc1 [Example 230, N-(2-furylmethyl)-4-{[5-(3-hydroxyphenyl)-7-morpholin-4-yl-3H-[1,2,3]triazolo[4,5-d]pyrimidin-3-yl]methyl}benzamide]	–
1950 nM	370 nM	CC(C)(C)OC(=O)Cn1nnc2c(N3CCOCC3)nc(-c3cccc(CO)c3)nc21 [Example 232, tert-butyl {5-[3-(hydroxymethyl)phenyl]-7-morpholin-4-yl-3H-[1,2,3]triazolo[4,5-d]pyrimidin-3-yl}acetate]	–
173 nM	74 nM	CC(C)(C)OC(=O)Cn1nnc2c(N3CCOCC3)nc(-c3ccc(NC(=O)Nc4ccncc4)cc3)nc21 [Example 234, tert-butyl (7-morpholin-4-yl-5-{4-[(pyridin-4-ylcarbamoyl)amino]phenyl}-3H-[1,2,3]triazolo[4,5-d]pyrimidin-3-yl)acetate]	–
2230 nM	637 nM	O=C(Cn1nnc2c(N3CCOCC3)nc(-c3cccc(CO)c3)nc21)Nc1cccnc1 [Example 235, 2-{5-[3-(hydroxymethyl)phenyl]-7-morpholin-4-yl-3H-[1,2,3]triazolo[4,5-d]pyrimidin-3-yl}-N-pyridin-3-ylacetamide]	–
1880 nM	560 nM	CNC(=O)Cn1nnc2c(N3CCOCC3)nc(-c3cccc(CO)c3)nc21 [Example 236, 2-{5-[3-(hydroxymethyl)phenyl]-7-morpholin-4-yl-3H-[1,2,3]triazolo[4,5-d]pyrimidin-3-yl}-N-methylacetamide]	–
2070 nM	245 nM	O=C(Cn1nnc2c(N3CCOCC3)nc(-c3cccc(CO)c3)nc21)Nc1ccc(F)cc1 [Example 238, N-(4-fluorophenyl)-2-{5-[3-(hydroxymethyl)phenyl]-7-morpholin-4-yl-3H-[1,2,3]triazolo[4,5-d]pyrimidin-3-yl}acetamide]	–
1700 nM	658 nM	O=C(O)Cn1nnc2c(N3CCOCC3)nc(-c3cccc(CO)c3)nc21 [Example 240, {5-[3-(hydroxymethyl)phenyl]-7-morpholin-4-yl-3H-[1,2,3]triazolo[4,5-d]pyrimidin-3-yl}acetic acid]	–
842 nM	509 nM	O=C(O)c1ccc(Cn2nnc3c(N4CCOCC4)nc(-c4cccc(O)c4)nc32)cc1 [Example 242, 4-{[5-(3-hydroxyphenyl)-7-morpholin-4-yl-3H-[1,2,3]triazolo[4,5-d]pyrimidin-3-yl]methyl}benzoic acid]	–
1610 nM	1510 nM	COC(=O)c1ccc(Cn2nnc3c(N4CCOCC4)nc(-c4cc(O)cc(F)c4)nc32)cc1 [Example 244, methyl 4-{[5-(3-fluoro-5-hydroxyphenyl)-7-morpholin-4-yl-3H-[1,2,3]triazolo[4,5-d]pyrimidin-3-yl]methyl}benzoate]	–
1940 nM	298 nM	O=C(O)Cn1nnc2c(N3CCOCC3)nc(-c3cccc(O)c3)nc21 [Example 245, [5-(3-hydroxyphenyl)-7-morpholin-4-yl-3H-[1,2,3]triazolo[4,5-d]pyrimidin-3-yl]acetic acid]	–
